Laboratory results reported in patent publication US10562912B2 (C&C Research Laboratories, priority 2013, dated 2020).

Tests used:
Format in all cases: cell-based
DU-145 = assay: Cell growth inhibition assay, prostate cancer cell line DU-145; conditions: Homo sapiens, DU-145 prostate cancer cell line
Method in brief: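 Luminescent CellTiter-Glo readout of viable cells after 72–96 h compound exposure (37° C., 5% CO2). Seeding: 3,000 cells/well for DU-145 and HCT116, 5,000 cells/well for SW626. Controls were medium without cells and 0.1% DMSO vehicle.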

STAT3 = molecular target: T1, STAT3 (Homo sapiens, UniProt P40763); assay: STAT3 reporter gene assay (luciferase), LNCaP stable cell line (pSTAT3-TA-luc), IL-6 stimulation
T1 construct: plasmid pSTAT3-TA-luc), which contains a stably operating STAT3 promoter; endogenous in cells
Method in brief: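 Cytotoxicity was run on a duplicate plate with CellTiter-Glo, while the other plate gave luciferase read-outs from lysed LNCaP pSTAT3-TA-luc reporter cells. Cells were treated with graded compound concentrations plus IL-6 (10 ng/mL final) for 24–48 h in 3% DCC-FBS medium. Unstimulated and stimulated wells served as negative and positive controls.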

LNCaP = assay: Cell growth inhibition assay, prostate cancer cell line LNCaP (medium with 10 ng/mL IL-6); conditions: Homo sapiens, medium supplemented with 10 ng/mL of IL-6, 10,000 cells/well

T1 sequence (P40763 whole entry): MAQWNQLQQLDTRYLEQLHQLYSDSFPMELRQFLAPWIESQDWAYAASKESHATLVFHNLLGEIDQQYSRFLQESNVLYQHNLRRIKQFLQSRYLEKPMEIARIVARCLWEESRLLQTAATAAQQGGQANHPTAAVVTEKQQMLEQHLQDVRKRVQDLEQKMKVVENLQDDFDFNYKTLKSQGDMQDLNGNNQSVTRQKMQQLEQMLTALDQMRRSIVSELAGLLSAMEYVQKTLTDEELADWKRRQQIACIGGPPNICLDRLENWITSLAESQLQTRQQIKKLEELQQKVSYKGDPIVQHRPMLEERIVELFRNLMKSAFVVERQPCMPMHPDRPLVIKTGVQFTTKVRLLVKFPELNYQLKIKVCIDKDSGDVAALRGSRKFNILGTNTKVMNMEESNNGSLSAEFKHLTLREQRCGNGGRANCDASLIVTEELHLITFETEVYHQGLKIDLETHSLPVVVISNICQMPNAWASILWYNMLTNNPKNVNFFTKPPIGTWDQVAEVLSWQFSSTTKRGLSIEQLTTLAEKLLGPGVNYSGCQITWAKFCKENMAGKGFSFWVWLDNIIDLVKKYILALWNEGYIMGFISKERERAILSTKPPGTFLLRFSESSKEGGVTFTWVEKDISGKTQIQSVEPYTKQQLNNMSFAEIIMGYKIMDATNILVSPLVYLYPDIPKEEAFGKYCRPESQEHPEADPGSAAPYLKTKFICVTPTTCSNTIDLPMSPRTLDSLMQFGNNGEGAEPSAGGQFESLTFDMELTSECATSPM

Compound	IC50 (DU-145) [µM]	IC50 (STAT3) [µM]	IC50 (LNCaP) [µM]
CC(C)c1ccc(C(C)(C)c2cc(Cl)cc(NC(=O)c3cc4cc(NS(C)(=O)=O)c(Cl)cc4s3)c2)s1 [Example 180, 6-chloro-N-(3-chloro-5-(2-(5-isopropylthiophen-2-yl)propan-2-yl)phenyl)-5-(methylsulfonamido)benzo[b]thiophene-2-carboxamide]	< 0.005	0.01	< 0.005
Cc1csc(C(C)(C)c2cc(Cl)cc(NC(=O)c3cc4cc(NS(C)(=O)=O)c(Cl)cc4s3)c2)c1 [Example 181, 6-chloro-N-(3-chloro-5-(2-(4-methylthiophen-2-yl)propan-2-yl)phenyl)-5-(methylsulfonamido)benzo[b]thiophene-2-carboxamide]	0.005	0.005	0.006
CC(C)(c1ccc(F)cc1)c1cc(Cl)cc(NC(=O)c2cc3cc(NS(C)(=O)=O)c(Cl)cc3s2)c1 [Example 182, 6-chloro-N-(3-chloro-5-(2-(4-fluorophenyl)propan-2-yl)phenyl)-5-(methylsulfonamido)benzo[b]thiophene-2-carboxamide]	0.005	0.012	0.018
COc1ccc(C(C)(C)c2cc(Cl)cc(NC(=O)c3cc4cc(NS(C)(=O)=O)c(Cl)cc4s3)c2)cc1 [Example 183, 6-chloro-N-(3-chloro-5-(2-(4-methoxyphenyl)propan-2-yl)phenyl)-5-(methylsulfonamido)benzo[b]thiophene-2-carboxamide]	0.005	0.01	0.013
CC(C)(c1ccc(Cl)cc1)c1cc(Cl)cc(NC(=O)c2cc3cc(Cl)c(NS(C)(=O)=O)cc3s2)c1 [Example 184, 5-chloro-N-(3-chloro-5-(2-(4-chlorophenyl)propan-2-yl)phenyl)-6-(methylsulfonamido)benzo[b]thiophene-2-carboxamide]	0.04	0.042	0.35
COCCS(=O)(=O)Nc1cc2cc(C(=O)Nc3cc(Cl)cc(C(C)(C)c4ccc(Cl)cc4)c3)sc2cc1Cl [Example 185, 6-chloro-N-(3-chloro-5-(2-(4-chlorophenyl)propan-2-yl)phenyl)-5-((2-methoxyethyl)sulfonamido)benzo[b]thiophene-2-carboxamide]	0.007	0.007	0.072
CC(C)(c1cc(Cl)cc(NC(=O)c2cc3cc(NS(C)(=O)=O)c(Cl)cc3s2)c1)c1ccc(C#N)s1 [Example 186, 6-chloro-N-(3-chloro-5-(2-(5-cyanothiophen-2-yl)propan-2-yl)phenyl)-5-(methylsulfonamido)benzo[b]thiophene-2-carboxamide]	0.023	0.1	0.039
CCn1cccc1C(C)(C)c1cc(Cl)cc(NC(=O)c2cc3cc(NS(C)(=O)=O)ccc3s2)c1 [Example 187, N-(3-chloro-5-(2-(1-ethyl-1H-pyrrol-2-yl)propan-2-yl)phenyl)-5-(methylsulfonamido)benzo[b]thiophene-2-carboxamide]	0.042	0.11	0.1
CC(C)(c1ccc(Cl)cc1)c1cc(Cl)cc(NC(=O)c2cc3cc(NS(=O)(=O)CCO)c(Cl)cc3s2)c1 [Example 188, 6-chloro-N-(3-chloro-5-(2-(4-chlorophenyl)propan-2-yl)phenyl)-5-((2-hydroxyethyl)sulfonamido)benzo[b]thiophene-2-carboxamide]	0.026	0.054	0.056
CC(C)(c1ccncc1)c1cc(Cl)cc(NC(=O)c2cc3cc(NS(C)(=O)=O)ccc3s2)c1 [Example 191, N-(3-chloro-5-(2-(pyridin-4-yl)propan-2-yl)phenyl)-5-(methylsulfonamido)benzo[b]thiophene-2-carboxamide]	0.74	0.54	2.2
CC(C)Oc1cc(OC(F)(F)F)cc(C(C)(C)c2cc(Cl)cc(NC(=O)c3cc4cc(OP(=O)(O)O)ccc4s3)c2)c1 [Example 193, 2-((3-chloro-5-(2-(3-isopropoxy-5-(trifluoromethoxy)phenyl)propan-2-yl)phenyl)carbamoyl)benzo[b]thiophen-5-yl dihydrogen phosphate]	0.39	0.38	0.99
CC(C)Oc1cc(OC(F)(F)F)cc(C(C)(C)c2cc(Cl)cc(NC(=O)c3cc4cc(NS(=O)(=O)CC5CCCO5)ccc4s3)c2)c1 (stereo not drawn) [Example 197, N-(3-chloro-5-(2-(3-isopropoxy-5-(trifluoromethoxy)phenyl)propan-2-yl)phenyl)-5-(((tetrahydrofuran-2-yl)methyl)sulfonamido)benzo[b]thiophene-2-carboxamide]	0.016	0.012	0.065
CC(C)Oc1cc(OC(F)(F)F)cc(C(C)(C)c2cc(Cl)cc(NC(=O)c3cc4cc(NS(=O)(=O)CC5CCOCC5)ccc4s3)c2)c1 [Example 198, N-(3-chloro-5-(2-(3-isopropoxy-5-(trifluoromethoxy)phenyl)propan-2-yl)phenyl)-5-(((tetrahydro-2H-pyran-4-yl)methyl)sulfonamido)benzo[b]thiophene-2-carboxamide]	0.017	0.03	0.046
CC(C)Oc1cc(OC(F)(F)F)cc(C(C)(C)c2cc(I)cc(NC(=O)c3cc4cc(NS(C)(=O)=O)ccc4s3)c2)c1 [Example 213, N-(3-iodo-5-(2-(3-isopropoxy-5-(trifluoromethoxy)phenyl)propan-2-yl)phenyl)-5-(methylsulfonamido)benzo[b]thiophene-2-carboxamide]	0.011	0.018	0.025
CN(c1ccc2sc(C(=O)Nc3cc(Cl)cc(Oc4ccc(Cl)cc4)c3)cc2c1)S(C)(=O)=O [Example 220, N-(3-chloro-5-(4-chlorophenoxy)phenyl)-5-(N-methylmethylsulfonamido)benzo[b]thiophene-2-carboxamide]	0.007	0.012	0.013
CN(c1ccc2sc(C(=O)Nc3cc(Cl)cc(C(C)(C)c4ccc(Cl)cc4)c3)cc2c1)S(C)(=O)=O [Example 221, N-(3-chloro-5-(2-(4-chlorophenyl)propan-2-yl)phenyl)-5-(N-methylmethylsulfonamido)benzo[b]thiophene-2-carboxamide]	0.008	0.011	0.011
CC(C)Oc1cc(OC(F)(F)F)cc(C(C)(C)c2cc(Cl)cc(NC(=O)C3=Cc4cc(NS(C)(=O)=O)ccc4S3(=O)=O)c2)c1 [Example 222, N-(3-chloro-5-(2-(3-isopropoxy-5-(trifluoromethoxy)phenyl)propan-2-yl)phenyl)-5-(methylsulfonamido)benzo[b]thiophene-2-carboxamide 1,1-dioxide]	> 1.1	6.1	> 1.1
CC(C)Oc1cc(OC(F)(F)F)cc(C(C)(C)c2cc(Cl)cc(NC(=O)c3cc4cc(NS(C)(=O)=O)ccc4[s+]3[O-])c2)c1 (stereo not drawn) [Example 223, N-(3-chloro-5-(2-(3-isopropoxy-5-(trifluoromethoxy)phenyl)propan-2-yl)phenyl)-5-(methylsulfonamido)benzo[b]thiophene-2-carboxamide 1-oxide]	0.005	0.24	0.17
